According to patent US7598419B2, “Compounds for modulating cell proliferation” (HSC Research and Development Limited Partnership, priority 2004, dated 2009):

What was measured:
[1] = system: normal bone marrow cells; assay: CFU-GEMM assay: normal bone marrow differentiation in culture; assay type: cell-based, human
Experimental: (§1) The CFU-GEMM assay was performed according to Fauser and Messner (1978, Blood, 52(6) 143-8) and Messner and Fausser (1980, Blut, 41(5) 327-33) with some variations. In brief, heparinized bone marrow cells were layered over Percoll (1.077 gm/ml) (Pharmacia Fine Chemical, Piscataway N.J.) and centrifuged at 400 g at 4° C. for 10 minutes to remove neutrophils and RBCs. The fractionated BM cells at 2×10^5 cells/ml were cultured in IMDM (OCI, Toronto) containing 0.9% (vol/vol) methylcellulose supplementd with 30% FCS (Cansera Rexdale, ON.) or normal human plasma, a cocktail of cytokines containing G-CSF (10 ng/ml, Amgen), IL-3 (40 U/ml, Immunex), MGF (50 ng/ml, Immunex), Erythropoietin (2 u/ml, Epprex) or TPO (10 ng/ml, Amgen), 5×10^−5M β-2-mercaptoethanol and the specified concentration of CR4. The culture mixture was plated in 1 ml volumes into 35 mm petri dishes and incubated at 37° C., 5% CO2 in a humidified atmosphere. All cultures were evaluated at 14 days for the number of BFU-E colonies (defined as aggregates of more than 500 hemoglobinized cells or, 3 or more erythroid subcolonies), CFU-GM colonies (defined as granulocyte or monocyte-macrophage cells or both), CFU-Meg colonies (comprising 4 or more megakaryocytes) and CFU-GEMM colonies (a mixed population comprising of all elements).
as §1, with “1243-8)” for “143-8)”, “concentrations” for “concentration”, “CR19.” for “CR4.”, “hemaglobinized” for “hemoglobinized”, “subcolonies) and CFU-C” for “subcolonies), CFU-GM”, “both).” for “both), CFU-Meg colonies (comprising 4 or more megakaryocytes) and CFU-GEMM colonies (a mixed population comprising of all elements).”
as §1, with “1243-8)” for “143-8)”, “variations (British Journal of Haematology, 1992, 80, p 40-48).” for “variations.”, “test compound.” for “CR4.”, “CO2,” for “CO2”, “subcolonies) and CFU-C” for “subcolonies), CFU-GM”, “both).” for “both), CFU-Meg colonies (comprising 4 or more megakaryocytes) and CFU-GEMM colonies (a mixed population comprising of all elements).”

[2] = system: Ly-MN lymphoma cells; assay: Colony assay of Ly-MN cells in culture; assay type: cell-based; settings: colonies at 5 days, FIG. 5
Experimental: Ly-MN cells were plated in 1 ml volumes, in the absence of exogenous growth factors, into 35 mm petri dishes (Nunc, Gibco) containing IMDM (OCI, Toronto) plus 20% human cord blood plasma in 0.9% (vol/vol) methylcellulose (Fluka, Switzerland) and the indicated concentrations of CR4. Cultures were set at 37° C., 5% CO2 in a humidified atmosphere. Colonies consisting of more than 20 cells were counted at 5 days or earlier using an inverted microscope.

[3] = system: primary juvenile myelo-monocytic leukemia cells; assay: Colony assay of primary JMML CD34+ cells in culture; assay type: cell-based; settings: Homo sapiens, 288 h, colonies at 12 days, FIG. 6
Experimental: Heparinized bone marrow cells from a JMML patient were layered over Percoll (1.077 gm/ml) (Pharmacia Fine Chemical, Piscataway N.J.) and centrifuged at 400 g at 4° C. for 10 minutes to remove neutrophils and RBCs. Cells were further fractionated and purified on Miltenyi MS columns (Miltenyi Biotec GmbH, Germany) to acquire an early progenitor population of CD34^+ cells. The fractionated BM CD34^+ cells at a density of 1×10^4 cells/ml were cultured in IMDM (OCI, Toronto) containing 0.9% (vol/vol) methylcellulose supplemented with 30% FCS (Cansera Rexdale, ON.) with the indicated concentration of CR4. The culture mixture was plated in 1 ml volumes into 35 mm petri dishes and incubated at 37° C., 5% CO2 in a humidified atmosphere. Colonies consisting of more than 20 cells were counted at 12 days or earlier using an inverted microscope.

[4] = Retention in blood after I.V. injection; assay type: in vivo; settings: 30 minutes after I.V. injection
[5] = system: cells of the myeloid lineage; settings: in vitro, ex vivo and in vivo; cited from earlier work

N#C/C(=C\C=C\c1ccc(O)c(O)c1)C(=O)NCc1ccccc1 [CR4, (E,E)-2-(Benzylaminocarbonyl)-3-(3,4-dihydroxystyryl)acrylonitrile]
BFU-E colony formation ([1]; 10 μM, 14 days, FIG. 1): some inhibition | CFU-GM colony numbers ([1]; 10 μM, 14 days, FIG. 1): significantly stimulated | effect upon normal cells at equivalent concentrations ([1]; concentrations equivalent to those inhibiting the cancer cells of the same example): no effect | toxicity upon normal bone marrow ([1]; doses up to 5 μM, colonies at 14 days, FIG. 1): negligible toxicity | normal cell growth and differentiation ([1]; low nanomolar doses, long term exposure): unaffected | concentrations until which minimal toxicity was seen in normal cells ([1]; normal cells incubated in the presence of compound): 10 to 20 µM | concentration by which inhibition was effected [2]: 2.5 µM | inhibition of Ly-MN cell proliferation and survival ([2]; nanomolar doses): significantly inhibited | inhibition at 5 µM [3]: 80 to 90% | retention: detection in the blood [4]: still being detectable | promotion of myelopoiesis [5]: capable of promoting myelopoiesis
